What was measured:
Format in all cases: biochemical
[1] = target: T1, recombinant human MMP-2 (Homo sapiens, UniProt P08253); assay: Competitive fluorogenic enzyme activity assay, MMP-2; conditions: fluorogenic substrate 5 μM, 5 nM enzyme, 30 min; read-out: IC50 toward MMP-2
T1 construct: purchased Anaspec Inc. AS72005
T1 sequence (P08253 110-660): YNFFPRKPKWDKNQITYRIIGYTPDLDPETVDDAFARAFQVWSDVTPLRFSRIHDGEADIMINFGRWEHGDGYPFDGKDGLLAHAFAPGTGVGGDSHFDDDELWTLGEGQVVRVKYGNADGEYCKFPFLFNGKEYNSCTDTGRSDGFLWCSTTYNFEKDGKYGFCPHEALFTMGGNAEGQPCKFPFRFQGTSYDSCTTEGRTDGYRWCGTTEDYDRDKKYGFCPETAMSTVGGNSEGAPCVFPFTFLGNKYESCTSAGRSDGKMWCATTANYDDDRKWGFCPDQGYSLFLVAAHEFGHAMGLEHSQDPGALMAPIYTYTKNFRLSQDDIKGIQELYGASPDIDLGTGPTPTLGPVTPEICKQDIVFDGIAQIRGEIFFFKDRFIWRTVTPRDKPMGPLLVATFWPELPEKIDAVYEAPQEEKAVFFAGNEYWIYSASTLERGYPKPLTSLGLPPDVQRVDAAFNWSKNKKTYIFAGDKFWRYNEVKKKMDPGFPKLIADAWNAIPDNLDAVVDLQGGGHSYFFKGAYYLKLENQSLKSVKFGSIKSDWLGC
Experimental: (§1) Determination of the IC50 toward human MMP-2, MMP-9, MMP-12 and MMP-13 was performed by a competitive enzyme activity assay according to a literature procedure. The assay was performed by incubating 5 μM of the synthesized fluorogenic peptide substrate Mca-Pro-Leu-Gly-Leu-Dpa(Dnp)-Ala-Arg-NH2 with 5 nM recombinant human MMP-2 (AS72005, Anaspec Inc., CA, USA), MMP-9 (911-MP, R&D Systems, MN, USA), MMP-12 (917-MP, R&D Systems) and MMP-13 (AS72011, Anaspec) along with various concentrations of ML5, I-ML5, PFB, PFP, IPFB, and IPFP (0.2–365 nM) in a buffer (pH 7.5, 50 mM tris(hydroxymethyl)aminomethane, 10 mM calcium chloride, 150 mM sodium chloride, and 0.01% Brij-35) containing 5% dimethyl sulfoxide. The increase in fluorescence over time was measured using a SpectraMax M2e microplate reader (Molecular Devices Inc., CA, USA) with an excitation wavelength of 325 nm and an emission wavelength of 395 nm. The fluorescence intensity after 30 min was plotted as a function of the concentration of each of the compounds on a logarithmic scale to produce an inhibition curve that was subsequently fit with a sigmoidal function by a least squares method. The IC50 values were calculated from the inhibition curves using GraphPad Prism 6 (GraphPad Software, Inc., CA, USA).

[2] = target: T2, recombinant human MMP-9 (Homo sapiens, UniProt P14780); assay: Competitive fluorogenic enzyme activity assay, MMP-9; conditions: fluorogenic substrate 5 μM, 5 nM enzyme, 30 min; read-out: IC50 toward MMP-9
T2 construct: purchased R&D Systems 911-MP
Experimental: as §1

[3] = target: T3, recombinant human MMP-12 (Homo sapiens, UniProt P39900); assay: Competitive fluorogenic enzyme activity assay, MMP-12; conditions: for IC50: fluorogenic substrate 5 μM, 5 nM enzyme, 30 min, read-out: IC50 toward MMP-12
T3 construct: purchased R&D Systems 917-MP
Experimental: Determination of the IC50 toward human MMP-2, MMP-9, MMP-12 and MMP-13 was performed by a competitive enzyme activity assay according to a literature procedure. […] The increase in fluorescence over time was measured using a SpectraMax M2e microplate reader (Molecular Devices Inc., CA, USA) with an excitation wavelength of 325 nm and an emission wavelength of 395 nm. The fluorescence intensity after 30 min was plotted as a function of the concentration of each of the compounds on a logarithmic scale to produce an inhibition curve that was subsequently fit with a sigmoidal function by a least squares method. The IC50 values were calculated from the inhibition curves using GraphPad Prism 6 (GraphPad Software, Inc., CA, USA).

[4] = target: T4, recombinant human MMP-13 (Homo sapiens, UniProt P45452); assay: Competitive fluorogenic enzyme activity assay, MMP-13; conditions: fluorogenic substrate 5 μM, 5 nM enzyme, 30 min; read-out: IC50 toward MMP-13
T4 construct: purchased Anaspec AS72011
Experimental: as §1

T2 sequence (P14780 94-707): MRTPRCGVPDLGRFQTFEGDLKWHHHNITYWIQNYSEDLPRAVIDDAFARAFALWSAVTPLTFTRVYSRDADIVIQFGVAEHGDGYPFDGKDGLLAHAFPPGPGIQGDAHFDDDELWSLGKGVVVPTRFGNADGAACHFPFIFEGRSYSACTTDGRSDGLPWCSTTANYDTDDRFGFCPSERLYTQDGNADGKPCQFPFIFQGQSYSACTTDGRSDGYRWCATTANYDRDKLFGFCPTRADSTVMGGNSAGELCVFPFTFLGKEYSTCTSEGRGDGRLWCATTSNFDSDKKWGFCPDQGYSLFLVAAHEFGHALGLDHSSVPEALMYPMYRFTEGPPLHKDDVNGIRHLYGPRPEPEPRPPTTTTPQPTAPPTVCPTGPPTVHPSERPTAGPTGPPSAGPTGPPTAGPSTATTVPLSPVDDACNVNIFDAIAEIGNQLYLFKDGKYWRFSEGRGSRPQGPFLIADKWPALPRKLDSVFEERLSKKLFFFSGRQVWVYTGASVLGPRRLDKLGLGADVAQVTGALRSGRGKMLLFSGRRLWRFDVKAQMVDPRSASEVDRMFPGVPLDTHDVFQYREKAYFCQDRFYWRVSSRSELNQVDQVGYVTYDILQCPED
T3 sequence (P39900 106-470): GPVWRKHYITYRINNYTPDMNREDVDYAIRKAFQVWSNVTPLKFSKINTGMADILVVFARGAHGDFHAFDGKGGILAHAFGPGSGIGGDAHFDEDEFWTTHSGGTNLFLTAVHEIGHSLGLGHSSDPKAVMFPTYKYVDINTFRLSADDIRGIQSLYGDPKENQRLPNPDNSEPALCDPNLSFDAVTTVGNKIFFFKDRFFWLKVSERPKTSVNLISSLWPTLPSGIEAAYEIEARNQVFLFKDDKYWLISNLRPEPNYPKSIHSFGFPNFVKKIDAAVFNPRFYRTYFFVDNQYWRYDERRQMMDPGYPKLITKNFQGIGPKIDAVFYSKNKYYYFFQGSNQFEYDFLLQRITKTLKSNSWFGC

`CC(C)C[C@H](CC(=O)NO)C(=O)N[C@@H](Cc1ccc(I)cc1)C(=O)N[C@@H](CCCCN)C(N)=O` [I-ML5] showed an IC50 [1] of 3.7 ± 1 nM, an IC50 [2] of 13.8 ± 1.5 nM and an IC50 [3] of 2.3 ± 1.1 nM. For the same compound, the IC50 [4] was 11.8 ± 6.3 nM.
`CC(C)C[C@H](CC(=O)NO)C(=O)N[C@@H](Cc1ccc(I)cc1)C(=O)N[C@@H](CCCCNC(=O)c1ccc(F)cc1)C(N)=O` [IPFB] showed an IC50 [1] of 29.1 ± 9.3 nM, an IC50 [2] of 148 ± 30.6 nM and an IC50 [3] of 12.3 ± 4 nM. It also gave an IC50 [4] of 44.5 ± 21.6 nM.
With `CC(C)C[C@H](CC(=O)NO)C(=O)N[C@@H](Cc1ccc(I)cc1)C(=O)N[C@@H](CCCCNC(=O)C(C)F)C(N)=O` (stereo partly drawn) [IPFP] the IC50 [1] was 4.4 ± 2.3 nM, the IC50 [2] was 8.1 ± 2 nM and the “inverse IC50 ratio (selectivity toward MMP-12) relative to MMP-2” value ([3]; MMP-12 vs MMP-2) was 2.9. The “inverse IC50 ratio (selectivity toward MMP-12) relative to MMP-9” value ([3]; MMP-12 vs MMP-9) was 5.4, the “inverse IC50 ratio (selectivity toward MMP-12) relative to MMP-13” value ([3]; MMP-12 vs MMP-13) was 2.7 and the IC50 [3] was 1.5 ± 0.8 nM. For the same compound, the IC50 [4] was 4.1 ± 1.7 nM.
`CC(C)C[C@H](CC(=O)NO)C(=O)N[C@@H](Cc1ccccc1)C(=O)N[C@@H](CCCCNC(=O)c1ccc(F)cc1)C(N)=O` [PFB] showed an IC50 [1] of 77.7 ± 4 nM, an IC50 [2] of 178 ± 24.2 nM and an IC50 [3] of 24.2 ± 14.1 nM. For the same compound, the IC50 [4] was 66.1 ± 26.1 nM.
For `CC(C)C[C@H](CC(=O)NO)C(=O)N[C@@H](Cc1ccccc1)C(=O)N[C@@H](CCCCNC(=O)C(C)F)C(N)=O` (stereo partly drawn) [PFP], the IC50 [1] was 12.5 ± 7.1 nM, the IC50 [2] was 54.1 ± 38.3 nM and the IC50 [3] was 4.5 ± 2.5 nM. It also gave an IC50 [4] of 11.1 ± 6.6 nM.
For `CC(C)C[C@H](CC(=O)NO)C(=O)N[C@@H](Cc1ccc(I)cc1)C(=O)N[C@@H](CCCCNC(=O)C(C)F)C(N)=O` (stereo partly drawn) [^18F-IPFP], the IC50 [3] was 1.5 nM.

Source: PMC5778071, “Development of matrix metalloproteinase-targeted probes for lung inflammation detection with positron emission tomography” (Scientific Reports, 2018)
